Experimental data taken from US10183927B2, “Crystalline forms of C21H22Cl2N4O2” (BIOMED VALLEY DISCOVERIES, INC., priority 2015, dated 2019).
Structures can show the parent of a compound that is named as a salt.

Experiment: Interconversion of solid forms as a function of relative humidity
Format: physicochemical
Method: A vessel containing 4-(5-Chloro-2-isopropylaminopyridin-4-yl)-1H-pyrrole-2-carboxylic acid [1-(3-chlorophenyl)-2-hydroxyethyl]amide Form A was purged with dry nitrogen and relative humidity was monitored. After about 73 minutes the relative humidity had decreased from 36.9% to 1.0%.

| Structure (SMILES) | solid form after purging with dry nitrogen (relative humidity decreased from 36.9% to 1.0% after about 73 minutes) | solid form upon sorption of water (sorption of water) |
| --- | --- | --- |
| CC(C)Nc1cc(-c2c[nH]c(C(=O)N[C@H](CO)c3cccc(Cl)c3)c2)c(Cl)cn1 [Form A, 4-(5-Chloro-2-isopropylaminopyridin-4-yl)-1H-pyrrole-2-carboxylic acid [1-(3-chlorophenyl)-2-hydroxyethyl]amide HCl hydrate] | determined to be a new form, designated Form D |  |
| CC(C)Nc1cc(-c2c[nH]c(C(=O)N[C@H](CO)c3cccc(Cl)c3)c2)c(Cl)cn1 [Form D, 4-(5-Chloro-2-isopropylaminopyridin-4-yl)-1H-pyrrole-2-carboxylic acid [1-(3-chlorophenyl)-2-hydroxyethyl]amide HCl] |  | observed to be Form A |
